From publication PMC5040251, “The Structure of Treponema pallidum Tp0751 (Pallilysin) Reveals a Non-canonical Lipocalin Fold That Mediates Adhesion to Extracellular Matrix Components and Interactions with Host Cells” (PLoS Pathogens, 2016)
Ends that are not written are not given here.

Legend:
[1] = tested on: collagen type I; assay: Initial (single point) binding screen of Tp0751 peptide library to immobilized collagen type I; conditions: immobilized human collagen type I; absorbance 600 nm, three wells, two independent experiments; Student's two-tailed t-test against non-binding peptides
Method: (§1) Fig 3 Tp0751 lipocalin derived peptides directly bind host proteins. (A) Thirteen overlapping Tp0751 synthetic 24-mer peptides were evaluated for binding to immobilized fibrinogen, fibronectin, collagen type I, and collagen type IV. Average absorbance readings (600 nm) from three wells are presented with bars indicating standard error and the results are representative of two independent experiments. […] Average absorbance readings (600 nm) from three wells are presented with bars indicating standard error and the results are representative of two independent experiments. […] The strand colored in cyan reflects the overlap of p10 and p11. Color coded sequences of peptides p4, p6, p10, p10scr1, and p10scr2 are shown. Arginine residues in the p10 peptides are indicated by underlining.
(§2) Plasminogen-depleted human fibrinogen (Calbiochem) was purchased from VWR International. Laminin isolated from Engelbreth-Holm-Swarm murine sarcoma basement membrane and fibronectin isolated from human plasma were purchased from Sigma-Aldrich Canada Ltd. (Oakville, ON). Human collagen types I and IV (Rockland Immunochemicals, Inc.) were purchased from VWR International.
(§3) To test for binding of synthetic Tp0751 peptides p1-p13, p1scr, p6scr, p10scr1, and p10scr2 to the host proteins fibrinogen, fibronectin, laminin, collagen type I, and collagen type IV, initial binding assays were performed as described previously. For dose-dependent binding assays, recombinant proteins were serially diluted 1:2 from either 10 μM to 0.156 μm (Tp0751_78A used for crystallization and Tp0751_78 WT) or 40 μm to 0.625 μm (peptides p4, p6, p10, p11, p10scr1, and p10scr2). Average absorbance readings (600 nm) from three wells are presented with bars indicating standard error and the results are representative of two independent experiments. Plates were read at 600 nm with a BioTek enzyme-linked immunosorbent assay plate reader (Fisher Scientific, Ottawa, ON). All statistical analyses were performed using the Student’s two-tailed t-test. Non-linear regression curves were fitted and apparent dissociation constants (K d) were calculated using GraphPad Prism data analysis software (San Diego, CA).

[2] = tested on: collagen type IV; assay: Initial (single point) binding screen of Tp0751 peptide library to immobilized collagen type IV; conditions: immobilized human collagen type IV; absorbance 600 nm, three wells, two independent experiments; Student's two-tailed t-test against non-binding peptides
Method: as §1, §2, §3

[3] = biological target: fibronectin; assay: Dose-dependent binding assay to immobilized fibronectin; conditions: plate binding to immobilized human plasma fibronectin; peptides serially diluted 1:2 from 40 to 0.625; absorbance 600 nm, three wells, representative of two independent experiments; non-linear regression, GraphPad Prism; read-out: Apparent Kd (Fn)
Method: as §1, §2, §3

[4] = biological target: T1, fibrinogen (Homo sapiens, UniProt P02671+P02675+P02679); assay: Initial (single point) binding screen of Tp0751 peptide library to immobilized fibrinogen; conditions: absorbance 600 nm, three wells, two independent experiments, Student's two-tailed t-test against non-binding peptides
T1 construct: purchased Calbiochem, purchased from VWR International
T1 sequence (P02671 20-629 limits assumed): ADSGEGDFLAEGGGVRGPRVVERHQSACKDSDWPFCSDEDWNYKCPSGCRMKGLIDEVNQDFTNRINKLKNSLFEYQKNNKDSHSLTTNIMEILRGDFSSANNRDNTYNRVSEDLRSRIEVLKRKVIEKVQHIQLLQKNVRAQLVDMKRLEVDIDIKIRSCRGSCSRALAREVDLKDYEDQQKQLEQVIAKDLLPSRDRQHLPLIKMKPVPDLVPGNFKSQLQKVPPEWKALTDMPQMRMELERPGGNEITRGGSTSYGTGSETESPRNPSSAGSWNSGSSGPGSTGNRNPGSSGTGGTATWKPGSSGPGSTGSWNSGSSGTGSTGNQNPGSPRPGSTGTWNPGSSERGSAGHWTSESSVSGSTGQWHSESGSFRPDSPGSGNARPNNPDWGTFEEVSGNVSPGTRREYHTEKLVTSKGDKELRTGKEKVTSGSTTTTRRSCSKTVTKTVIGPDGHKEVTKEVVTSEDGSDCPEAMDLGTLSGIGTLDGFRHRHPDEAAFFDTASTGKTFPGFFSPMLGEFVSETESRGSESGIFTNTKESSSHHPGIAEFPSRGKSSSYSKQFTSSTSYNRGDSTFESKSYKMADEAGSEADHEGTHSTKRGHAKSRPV
T1 sequence (P02675 31-491): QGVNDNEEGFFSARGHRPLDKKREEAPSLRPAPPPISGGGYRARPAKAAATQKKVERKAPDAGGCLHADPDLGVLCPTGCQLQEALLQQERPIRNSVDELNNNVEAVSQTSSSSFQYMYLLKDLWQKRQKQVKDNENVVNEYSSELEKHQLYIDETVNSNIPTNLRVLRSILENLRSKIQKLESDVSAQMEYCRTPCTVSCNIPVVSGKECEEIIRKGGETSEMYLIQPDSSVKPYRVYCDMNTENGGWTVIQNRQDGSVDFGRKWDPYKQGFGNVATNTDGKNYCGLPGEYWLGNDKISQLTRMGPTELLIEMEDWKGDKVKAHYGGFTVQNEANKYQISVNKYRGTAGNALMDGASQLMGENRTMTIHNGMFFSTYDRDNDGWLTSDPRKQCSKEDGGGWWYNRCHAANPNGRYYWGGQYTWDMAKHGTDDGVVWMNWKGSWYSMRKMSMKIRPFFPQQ
T1 sequence (P02679 27-433 limits assumed): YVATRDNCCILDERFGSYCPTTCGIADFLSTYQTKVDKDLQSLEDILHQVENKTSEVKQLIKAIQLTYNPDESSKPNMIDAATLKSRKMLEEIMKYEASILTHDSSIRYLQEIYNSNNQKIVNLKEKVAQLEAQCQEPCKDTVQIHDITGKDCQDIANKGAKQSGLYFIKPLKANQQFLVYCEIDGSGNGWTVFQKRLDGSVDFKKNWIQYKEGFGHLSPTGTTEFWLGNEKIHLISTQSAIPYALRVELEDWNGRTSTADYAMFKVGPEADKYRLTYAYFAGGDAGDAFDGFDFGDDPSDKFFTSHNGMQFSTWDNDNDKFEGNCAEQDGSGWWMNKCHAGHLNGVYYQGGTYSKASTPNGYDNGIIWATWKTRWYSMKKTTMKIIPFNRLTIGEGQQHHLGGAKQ
Method: as §1, §2, §3

Sequence | Binding to collagen I in initial binding screen [1] | Binding to collagen IV in initial binding screen [2] | Kd [3] [µM] | Binding to fibrinogen in initial binding screen [4]
HHHHHHGGAAQTHTQPPVQTAMRIALWNRA [p4] | statistically significant binding | statistically significant binding | 2.4 ± 0.1 | statistically significant binding
HHHHHHQGALQHLLAGLWIQTEISPNSGDI [p6] | statistically significant binding | statistically significant binding | 4.5 ± 0.9 | statistically significant binding
HHHHHHRKTVSFLTRNTAISSIRRRLEVTF [p10] | not to collagen I | significant binding | 1.6 ± 0.2 | significant binding
HHHHHHSIRRRLEVTFESHEVIHVRAVEDV [p11] | statistically significant binding | statistically significant binding | 5.8 ± 0.3 | statistically significant binding
